Experimental data reported in patent publication US20140275094A1, “METHOD FOR TREATING PULMONARY ARTERIAL HYPERTENSION IN A PATIENT NOT HAVING IDIOPATHIC PULMONARY FIBROSIS” (GILEAD SCIENCES, INC., priority 2012, published 2014).

What was measured:
Assay type in all cases: in vivo, human
[1] = Post-marketing spontaneous and clinical serious adverse event hepatic data (LEAP), 2 years after first approval
Source text: During the 2-year period since ambrisentan was first approved, the vast majority of patient exposure had been in the U.S. through Letairis Education and Access Program (LEAP). As of 14 Jun. 2009, a total of 6,622 patients had enrolled in LEAP and received at least one shipment of ambrisentan. Approximately half of the patients for whom duration of therapy was available received ambrisentan for a period of at least 6 months, resulting in a total of 3,847 patient-years of exposure. Exposure duration is depicted in FIG. 3 showing LEAP patients by exposure duration.
A total of 120 post-marketing spontaneous reports were identified for the 2-year period (15 Jun. 2007 through 14 Jun. 2009) where 119 reports were received via LEAP in the U.S. and the remaining one was received from Germany (outside of LEAP). As of 31 Mar. 2009, there were […] of exposure to ambrisentan. All reports were actively followed up in accordance with Gilead Drug Safety procedures to obtain all important information needed to assess a potential relationship with ambrisentan therapy, particularly laboratory data, medical history and concurrent medications. All reports included potential alternative causes for the hepatic events which are unrelated to ambrisentan therapy, such as right-sided heart failure due to underlying PAH, other co-morbidities or concurrent medications.
Of the 120 spontaneous reports, 55 reports were medically-confirmed suspected adverse reaction reports. A total of 28 cases were considered “clinically significant hepatic events” which are defined as (1) ALT and/or AST increases >3×ULN, (2) serum total bilirubin increases >2×ULN, (3) any hepatic event associated with potential signs/symptoms of hepatic disease, or (4) any clinically significant hepatic event term (e.g., liver failure). These cases included 24 reports of serum aminotransferase (ALT/AST) increases >3×ULN; 3 reports of elevated serum total bilirubin>2×ULN; and 1 report of elevated serum aminotransferases with signs and symptoms, but AST and ALT values were not provided. Of these 28 cases, there were 3 reports of both elevated ALT/AST>3×ULN and serum total bilirubin>2×ULN. However, these reports included probable alternate causes of the hepatic events such as sickle cell disease in a patient with baseline serum total bilirubin of ‘7.7’, suspected gall bladder disease in a patient who developed increased serum total bilirubin (5×ULN) and alkaline phosphatase (3.3×ULN) 11 days before an increase in ALT to 3.1×ULN, and documented cardiogenic shock and right-sided heart failure due to PAH.
There were 7 drug-related serious adverse event (SAE) reports from clinical studies which had evidence of alternative causes of the hepatic events or were poorly documented. Six of the reports were considered clinically significant, including one case where ALT/AST was >3×ULN and serum total bilirubin>2×ULN. However, probable causes of the hepatic events in this case included concurrent right heart failure, diagnosed after the patient admitted missing several doses of ambrisentan and 3-4 days of sildenafil and furosemide and with a baseline serum total bilirubin of 1.7×ULN.
The estimated post-marketing incidence rate of hepatic events with ambrisentan in the U.S. during the 2-year post-marketing period is 1.8% (119/6622), detected through LEAP. This rate is consistent with the background rate of placebo-treated PAH patients in clinical trials evaluating ERAs which appeared to have an incidence rate of 2%-3% over a 12- to 24-week period.

[2] = test system: patients with PAH (WHO Group 1); test: ARIES-2 12-week placebo-controlled study
Experimental: Two 12-week, randomized, double-blind, placebo-controlled, multicenter studies were conducted in 393 patients with PAH (WHO Group 1). The two studies were identical in design except for the doses of ambrisentan and the geographic region of the investigational sites. ARIES-1 (Ambrisentan in Pulmonary Arterial Hypertension, Randomized, Double-Blind, Placebo-Controlled, Multicenter, Efficacy Studies) compared once-daily doses of 5 mg and 10 mg ambrisentan to placebo, […] In both studies, ambrisentan or placebo was added to current therapy, which could have included a combination of anticoagulants, diuretics, calcium channel blockers, or digoxin, but not epoprostenol, treprostinil, iloprost, bosentan, or sildenafil. The primary study endpoint was 6-minute walk distance. In addition, clinical worsening, WHO functional class, dyspnea, and SF-36® Health Survey were assessed.
Patients had idiopathic or heritable PAH (64%) or PAH associated with connective tissue diseases (32%), HIV infection (3%), or anorexigen use (1%). There were no patients with PAH associated with congenital heart disease.
Patients had WHO functional class I (2%), II (38%), III (55%), or IV (5%) symptoms at baseline. The mean age of patients was 50 years, 79% of patients were female, and 77% were Caucasian.
Clinical Worsening: Time to clinical worsening of PAH was defined as the first occurrence of death, lung transplantation, hospitalization for PAH, atrial septostomy, study withdrawal due to the addition of other PAH therapeutic agents or study withdrawal due to early escape. Early escape was defined as meeting two or more of the following criteria: a 20% decrease in the 6-minute walk distance; an increase in WHO functional class; worsening right ventricular failure; rapidly progressing cardiogenic, hepatic, or renal failure; or refractory systolic hypotension.

[3] = test system: patients with PAH; test: Long-term follow-up of the two pivotal studies and open-label extension; conditions: 2.5, 5 or 10 mg once daily, N=383
Experimental: Long-term Treatment of PAH: In long-term follow-up of patients who were treated with ambrisentan (2.5 mg, 5 mg, or 10 mg once daily) in the two pivotal studies and their open-label extension (N=383), Kaplan-Meier estimates of survival at 1, 2, and 3 years were 93%, 85%, and 79%, respectively. Of the patients who remained on ambrisentan for up to 3 years, the majority received no other treatment for PAH.

[4] = among the 28 clinically significant cases
[5] = ARIES-2, 5 mg (N = 64), 12 weeks
[6] = ARIES-2, ambrisentan N = 127, 12-week treatment, intention-to-treat

COC(c1ccccc1)(c1ccccc1)[C@H](Oc1nc(C)cc(C)n1)C(=O)O [Ambrisentan, (25)-2-[(4,6-dimethylpyrimidin-2-yl)oxy]-3-methoxy-3,3-diphenylpropanoic acid]
post-marketing spontaneous reports of hepatic events, number ([1]; 15 Jun. 2007 through 14 Jun. 2009): 120 | estimated post-marketing incidence rate of hepatic events ([1]; U.S., 2-year post-marketing period, LEAP (119/6622)): 1.8% | reports of both elevated ALT/AST >3×ULN and serum total bilirubin >2×ULN, number [1, 4]: 3 | reports of elevated serum total bilirubin >2×ULN, number [1, 4]: 3 | reports of serum aminotransferase (ALT/AST) increases >3×ULN, number [1, 4]: 24 | drug-related serious adverse event (SAE) reports from clinical studies, number ([1]; hepatic events): 7 | cases considered clinically significant hepatic events, number ([1]; of 55 medically-confirmed suspected adverse reaction reports): 28 | incidence of hepatic events (adverse events and elevated aminotransferase levels) ([1]; post-marketing data): approximately 2% | Placebo-adjusted mean change from baseline in 6-minute walk distance [2, 5]: 32 meters | Placebo-adjusted median change from baseline in 6-minute walk distance [2, 5]: 30 meters | Mean change from baseline in 6-minute walk distance ([2]; ARIES-2, 5 mg (N = 64), 12 weeks, mean ± SD): 22 ± 83 meters | Clinical worsening, % [2, 6]: 6% | Clinical worsening, no. [2, 6]: 8 | Time to clinical worsening, hazard ratio ([2]; ARIES-2, versus placebo): 0.30 | Kaplan-Meier estimate of survival ([3]; at 1 year): 93% | Kaplan-Meier estimate of survival ([3]; at 2 years): 85% | Kaplan-Meier estimate of survival ([3]; at 3 years): 79%
